In this assay the target is HeLa cell based IDO1 (Homo sapiens (Human), UniProt P14902). Kind of assay: Three-point IDO1 cellular assay (HeLa, 10, 100 and 1000 nM). The following applies: HeLa cells, 100 ng/mL IFN-γ, 18 hours. How it is done: To perform the 3-point HeLa cell based IDO1 assay, HeLa cells were seeded at 25,000 cells per well into 96-well microplate in 100 μL of growth medium. Cells were incubated at 37° C. and 5% CO2 overnight. The next day 100 μL per well of diluted inhibitor in growth medium at 10, 100 and 1000 nM, respectively, was added at a final concentration of 100 ng/ML human IFN-γ. Cells were incubated at 37° C. in a CO2 incubator for 18 hours. […] The plate was incubated at 50° C. for 30 min to hydrolyze N-formylkynurenine produced by IDO1 to kynurenine. The plate was then centrifuged at 2500 rpm for 10 min to remove sediments. 100 μl of supernatant per well was transferred to another 96-well plate and mixed with 100 μL of 2% (w/v) 4-(Dimethylamino) benzaldehyde in acetic acid. The plate was incubated at room temperature for 10 minutes, the yellow color derived from kynurenine was recorded by measuring absorbance at 480 nm using a microplate reader (TECAN Infinite M1000 Pro). Cell based assays were performed in triplicate at each concentration. The absorbance data were analyzed using the computer software, Graphpad Prism. In the absence of the compound and presence of 100 ng/ML IFN-γ, the absorbance (At) in each data set was defined as 100%. The absorbance of medium blank (Ab) in each data set was defined as 0%. The percent absorbance in the presence of each compound was calculated according to the following equation: % Absorbance=(A−Ab)/(At−Ab), where A=the absorbance in the presence of the compound and IFN-γ, Ab=the absorbance of medium blank, and At=the absorbance in the absence of the compounds and presence of IFN-γ. The values of % absorbance versus the compound concentrations were then determined.
HeLa cell based IDO1, sequence (P14902 whole entry): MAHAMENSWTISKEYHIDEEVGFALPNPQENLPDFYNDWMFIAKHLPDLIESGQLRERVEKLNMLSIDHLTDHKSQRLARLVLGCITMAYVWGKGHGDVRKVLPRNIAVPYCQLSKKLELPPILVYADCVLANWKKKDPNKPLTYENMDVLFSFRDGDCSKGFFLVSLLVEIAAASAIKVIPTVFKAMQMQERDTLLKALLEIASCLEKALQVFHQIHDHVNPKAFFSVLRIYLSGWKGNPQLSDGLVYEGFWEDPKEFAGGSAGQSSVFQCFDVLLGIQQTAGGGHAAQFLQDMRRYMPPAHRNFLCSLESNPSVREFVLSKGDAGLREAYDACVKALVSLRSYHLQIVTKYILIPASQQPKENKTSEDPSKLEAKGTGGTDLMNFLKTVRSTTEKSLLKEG

For the molecule `O=C(CO)NC1C2CC3CC1CC(C(O)CC1c4ccccc4-c4cncn41)(C3)C2` (stereo not drawn) [Compound 51A], the inhibition at 1 µM (at 1000 nM) is greater than 50%.

Molecule `OC(CC1c2c(F)cccc2-c2cncn21)C12CC3CC(C1)C(OCCN1CCOCC1)C(C3)C2` (stereo not drawn) [Compound 135A] yielded an inhibition at 0.1 µM (at 100 nM) greater than 50%.

Where the note is “at 100 nM”, `O=C(Cc1ccccc1)NC1C2CC3CC1CC(C(O)CC1c4ccccc4-c4cncn41)(C3)C2` (stereo not drawn) [Compound 53B] displayed an inhibition at 0.1 µM greater than 50%.

`O=C(Cc1ccncc1)NC1C2CC3CC1CC(C(O)CC1c4ccccc4-c4cncn41)(C3)C2` (stereo not drawn) [Compound 50A] registered an inhibition at 1 µM (at 1000 nM) greater than 50%.

For the molecule `OC(CC1c2c(F)cccc2-c2cncn21)C12CC3CC(C1)C(Nc1nc4ccccc4s1)C(C3)C2` (stereo not drawn) [Compound 126], the inhibition at 0.01 µM (at 10 nM) was greater than 50%.

For `CN(C1C2CC3CC1CC(C(O)CC1c4c(F)cccc4-c4cncn41)(C3)C2)S(=O)(=O)Cc1ccccc1` (stereo not drawn) [Compound 89], the “inhibition values of %” value (at 100 nM) is listed as “greater than 50%”.

Take `ON=C1C2CC3CC1CC(C(O)CC1c4c(F)cccc4-c4cncn41)(C3)C2` (stereo not drawn) [Compound 80]: the “inhibition values of %” value (at 1000 nM) is recorded as “greater than 50%”.

Under “at 1000 nM”, `CC(=O)c1ccc(NC(=O)NC2C3CC4CC2CC(C(O)CC2c5ccccc5-c5cncn52)(C4)C3)cc1` (stereo not drawn) [Compound 104] showed an inhibition at 1 µM greater than 50%.

Where the note is “at 1000 nM”, `O=S(=O)(CC1CCCCC1)NC12CC3CC(C1)C(C(O)CC1c4ccccc4-c4cncn41)C(C3)C2` (stereo not drawn) [Compound 170A-A] showed an inhibition at 1 µM greater than 50%.

As to `OC(CC1c2c(F)cccc2-c2cncn21)C12CC3CC(C1)N(c1ncc(-c4ccccc4)o1)C(C3)C2` (stereo not drawn) [Compound 210], for the setting “at 1000 nM”, the inhibition at 1 µM was greater than 50%.

Under “at 1000 nM”, `N#Cc1ccc(NC(=O)NC23CC4CC(C2)C(C(O)CC2c5c(F)cccc5-c5cncn52)C(C4)C3)cc1` (stereo not drawn) [Compound 191A] had an inhibition at 1 µM greater than 50%.

As for `CNC(=O)NC1C2CC3CC1CC(C(O)CC1c4c(F)cccc4-c4cncn41)(C3)C2` (stereo not drawn) [Compound 98A], where the note is “at 1000 nM”, the “inhibition values of %” value is listed as “greater than 50%”.

Under “at 100 nM”, `O=C(Nc1ccc(Cl)cc1)NC1C2CC3CC1CC(C(O)CC1c4c(F)cccc4-c4cncn41)(C3)C2` (stereo not drawn) [Compound 94A] showed an inhibition at 0.1 µM greater than 50%.

The molecule `N#Cc1ccc(C2(O)C3CC4CC2CC(C(O)CC2c5c(F)cccc5-c5cncn52)(C4)C3)cc1` (stereo not drawn) [Compound 145] displayed an inhibition at 1 µM (at 1000 nM) greater than 50%.

Under “at 1000 nM”, `O=S(=O)(CC1CCC1)NC1C2CC3CC1CC(C(O)CC1c4c(F)cccc4-c4cncn41)(C3)C2` (stereo not drawn) [Compound 67A] showed an inhibition at 1 µM greater than 50%.

For the setting “at 1000 nM”, `OC(CC1c2c(F)cccc2-c2cncn21)C12CC3CC(C1)C(OCc1ccccc1)C(C3)C2` (stereo not drawn) [Compound 133] yielded an inhibition at 1 µM greater than 50%.

On to `O=C1N(c2ccc(F)cc2)CCN1C1C2CC3CC1CC(C(O)CC1c4c(F)cccc4-c4cncn41)(C3)C2` (stereo not drawn) [Compound 122], for which, for the setting “at 100 nM”, the “inhibition values of %” value was “greater than 50%”.

In turn, `OC(CC1c2c(F)cccc2-c2cncn21)C12CC3CC(C1)C(OCCN1CCOCC1)C(C3)C2` (stereo not drawn) [Compound 135B] gave an inhibition at 1 µM (at 1000 nM) greater than 50%.

Consider `OC(COC1C2CC3CC1CC(C(O)CC1c4c(F)cccc4-c4cncn41)(C3)C2)C1CCCCC1` (stereo not drawn) [Compound 137], for which, where the note is “at 1000 nM”, the inhibition at 1 µM is greater than 50%.

For `O=S(=O)(NC12CC3CC(C1)C(C(O)CC1c4ccccc4-c4cncn41)C(C3)C2)C1CC1` (stereo not drawn) [Compound 169A], the inhibition at 0.1 µM (at 100 nM) is greater than 50%.

The molecule `Cn1cc(NC(=O)NC2C3CC4CC2CC(C(O)CC2c5c(F)cccc5-c5cncn52)(C4)C3)cn1` (stereo not drawn) [Compound 114A] came in with an inhibition at 1 µM (at 1000 nM) greater than 50%.

As to `Cc1ccc(CC(=O)NC23CC4CC(C2)C(C(O)CC2c5c(F)cccc5-c5cncn52)C(C4)C3)cc1` (stereo not drawn) [Compound 193A], the inhibition at 0.1 µM (at 100 nM) was greater than 50%.

For `O=S(=O)(CC1CCOCC1)NC1C2CC3CC1CC(C(O)CC1c4c(F)cccc4-c4cncn41)(C3)C2` (stereo not drawn) [Compound 84A], for the setting “at 100 nM”, the “inhibition values of %” value was “greater than 50%”.

In turn, `O=C(Nc1ccc2ccccc2c1)NC1C2CC3CC1CC(C(O)CC1c4c(F)cccc4-c4cncn41)(C3)C2` (stereo not drawn) [Compound 110A] showed an inhibition at 0.1 µM (at 100 nM) greater than 50%.

`OC(COC1C2CC3CC1CC(C(O)CC1c4c(F)cccc4-c4cncn41)(C3)C2)c1ccccc1` (stereo not drawn) [Compound 136]: under “at 100 nM”, the “inhibition values of %” value is on record as “greater than 50%”.

In turn, `O=C(NCC1CCC1)NC1C2CC3CC1CC(C(O)CC1c4c(F)cccc4-c4cncn41)(C3)C2` (stereo not drawn) [Compound 111A] displayed an inhibition at 0.1 µM (at 100 nM) greater than 50%.

`O=C(NCC1CC1)NC1C2CC3CC1CC(C(O)CC1c4c(F)cccc4-c4cncn41)(C3)C2` (stereo not drawn) [Compound 107A] displayed an inhibition at 0.1 µM (at 100 nM) greater than 50%.

Regarding `NS(=O)(=O)NC1C2CC3CC1CC(C(O)CC1c4c(F)cccc4-c4cncn41)(C3)C2` (stereo not drawn) [Compound 48A], the inhibition at 1 µM (at 1000 nM) was greater than 50%.

Where the note is “at 100 nM”, `Cc1ccc(NS(=O)(=O)NC2C3CC4CC2CC(C(O)CC2c5ccccc5-c5cncn52)(C4)C3)cc1` (stereo not drawn) [Compound 153] returned an inhibition at 0.1 µM greater than 50%.

Consider `O=C(NCC1CCOC1)NC1C2CC3CC1CC(C(O)CC1c4c(F)cccc4-c4cncn41)(C3)C2` (stereo not drawn) [Compound 112A], for which, under “at 1000 nM”, the inhibition at 1 µM was greater than 50%.

For the setting “at 100 nM”, `O=S(=O)(CCc1ccccc1)NC1C2CC3CC1CC(C(O)CC1c4c(F)cccc4-c4cncn41)(C3)C2` (stereo not drawn) [Compound 64] registered an inhibition at 0.1 µM greater than 50%.

In turn, `O=C(Nc1ccc(F)cc1)NC1C2CC3CC1CC(C(O)CC1c4c(F)cccc4-c4cncn41)(C3)C2` (stereo not drawn) [Compound 93B] displayed an inhibition at 0.1 µM (at 100 nM) greater than 50%.

As to `O=S(=O)(CC1CC1)NC1C2CC3CC1CC(C(O)CC1c4c(F)cccc4-c4cncn41)(C3)C2` (stereo not drawn) [Compound 68], where the note is “at 100 nM”, the inhibition at 0.1 µM was greater than 50%.

In turn, `O=C(Cc1ccc(F)cc1)N1C2CC3CC1CC(C(O)CC1c4c(F)cccc4-c4cncn41)(C3)C2` (stereo not drawn) [Compound 207] registered an inhibition at 1 µM (at 1000 nM) greater than 50%.

The molecule `O=S(=O)(NC12CC3CC(C1)C(C(O)CC1c4ccccc4-c4cncn41)C(C3)C2)c1ccc(C(F)(F)F)cc1` (stereo not drawn) [Compound 166B] registered an inhibition at 0.1 µM (at 100 nM) greater than 50%.

Under “at 1000 nM”, `CC(=O)Nc1ccc(S(=O)(=O)NC23CC4CC(C2)C(C(O)CC2c5ccccc5-c5cncn52)C(C4)C3)cc1` (stereo not drawn) [Compound 201A] yielded an inhibition at 1 µM greater than 50%.

`O=C(CC1CCCCC1)NC12CC3CC(C1)C(C(O)CC1c4c(F)cccc4-c4cncn41)C(C3)C2` (stereo not drawn) [Compound 192A] yielded an inhibition at 0.1 µM (at 100 nM) greater than 50%.

The molecule `O=S(=O)(Nc1ccc(F)cc1)NC1C2CC3CC1CC(C(O)CC1c4ccccc4-c4cncn41)(C3)C2` (stereo not drawn) [Compound 152] returned an inhibition at 1 µM (at 1000 nM) greater than 50%.

In the case of `O=S(=O)(NC1C2CC3CC1CC(C(O)CC1c4c(F)cccc4-c4cncn41)(C3)C2)C1CCCC1` (stereo not drawn) [Compound 85A], the “inhibition values of %” value (at 10 nM) was “greater than 50%”.

Consider `O=S(=O)(NC12CC3CC(C1)C(C(O)CC1c4ccccc4-c4cncn41)C(C3)C2)C1CC1` (stereo not drawn) [Compound 169B], for which, under “at 1000 nM”, the inhibition at 1 µM was greater than 50%.

As to `OC(CC1c2c(F)cccc2-c2cncn21)C12CC3CC(C1)C(Nc1nc4cccnc4o1)C(C3)C2` (stereo not drawn) [Compound 127], under “at 100 nM”, the “inhibition values of %” value was “greater than 50%”.

Take `O=C(Nc1ccc(F)cc1F)NC1C2CC3CC1CC(C(O)CC1c4c(F)cccc4-c4cncn41)(C3)C2` (stereo not drawn) [Compound 105A]: the inhibition at 0.1 µM (at 100 nM) is greater than 50%.

Where the note is “at 1000 nM”, `O=S(=O)(Cc1ccccc1)NC1C2CC3CC1CC(C(O)CC1c4ccccc4-c4cncn41)(C3)C2` (stereo not drawn) [Compound 75B] registered an inhibition at 1 µM greater than 50%.

As for `O=C(NC1CCOCC1)NC1C2CC3CC1CC(C(O)CC1c4c(F)cccc4-c4cncn41)(C3)C2` (stereo not drawn) [Compound 54], under “at 1000 nM”, the “inhibition values of %” value was “greater than 50%”.

In the case of `O=S(=O)(Nc1ccccc1)NC1C2CC3CC1CC(C(O)CC1c4ccccc4-c4cncn41)(C3)C2` (stereo not drawn) [Compound 151], the “inhibition values of %” value (at 100 nM) is given as “greater than 50%”.

For the molecule `Cc1ccc(NC(=O)NC23CC4CC(C2)C(C(O)CC2c5ccccc5-c5cncn52)C(C4)C3)cc1` (stereo not drawn) [Compound 164A], under “at 100 nM”, the inhibition at 0.1 µM is greater than 50%.

`O=S(=O)(Cc1ccccc1)N1C2CC3CC1CC(C(O)CC1c4c(F)cccc4-c4cncn41)(C3)C2` (stereo not drawn) [Compound 205] showed an inhibition at 1 µM (at 1000 nM) greater than 50%.

With `O=S(=O)(CC1CCCC1)NC1C2CC3CC1CC(C(O)CC1c4c(F)cccc4-c4cncn41)(C3)C2` (stereo not drawn) [Compound 82A], the inhibition at 0.01 µM (at 10 nM) was greater than 50%.

Under “at 1000 nM”, `Cc1ccc(NC(=O)NC23CC4CC(C2)C(C(O)CC2c5ccccc5-c5cncn52)C(C4)C3)cc1` (stereo not drawn) [Compound 164B] displayed an inhibition at 1 µM greater than 50%.

For `O=C(Nc1ccc(F)cc1)NC12CC3CC(C1)C(C(O)CC1c4ccccc4-c4cncn41)C(C3)C2` (stereo not drawn) [Compound 163B], for the setting “at 1000 nM”, the inhibition at 1 µM is greater than 50%.

Regarding `OC(CC1c2c(F)cccc2-c2cncn21)C12CC3CC(C1)C(O)(c1cccnc1)C(C3)C2` (stereo not drawn) [Compound 146], the inhibition at 1 µM (at 1000 nM) was greater than 50%.

On to `OCCC1(O)C2CC3CC1CC(C(O)CC1c4c(F)cccc4-c4cncn41)(C3)C2` (stereo not drawn) [Compound 142], for which the “inhibition values of %” value (at 1000 nM) is listed as “greater than 50%”.

In the case of `O=C1C2CC3CC1CC(C(O)CC1c4c(F)cccc4-c4cncn41)(C3)C2` (stereo not drawn) [Compound 63], under “at 1000 nM”, the “inhibition values of %” value is “greater than 50%”.

`O=S(=O)(CC1CCCCC1)NC1C2CC3CC1CC(C(O)CC1c4c(F)cccc4-c4cncn41)(C3)C2` (stereo not drawn) [Compound 65]: the inhibition at 0.01 µM (at 10 nM) is greater than 50%.

Values taken from patent publication US10202388B2, “Fused-ring compounds, pharmaceutical composition and uses thereof” (SHANGHAI DE NOVO PHARMATECH CO., LTD., priority 2015, dated 2019).
